Target: CalO2 (Micromonospora echinospora, UniProt Q8KND6)
Assay: CalO2 ligand binding by UV-vis difference spectra
Set-up: species or system M. echinospora

SMILES	Kd
CC(=O)NCCSC(=O)c1c(C)cc(O)cc1O [compound 11]	170 ± 30 µM
CC(=O)NCCSC(=O)c1cccc(I)c1 [compound 13]	120 µM
CC(=O)NCCSC(=O)c1ccccc1O [compound 14]	405 ± 100 µM
